This note sets out measurements from patent EP0330444A2, “Novel thiorhodamines and a novel method of preparation” (EASTMAN KODAK COMPANY (a New Jersey corporation), priority 1988, dated 1989).

Test [1] deals with A549 Human Lung Carcinoma. Description: In vitro IC50, adhering monolayer culture, neutral red staining, inhibition of cell growth. It counts as cell-based. The conditions noted are these: 3 hours drug exposure under red light, then about 7 days growth (four cell-doubling times), neutral red absorbence at 540 nm, read-out: IC₅₀ A549 Human Lung Carcinoma. From the text: (§1) The following is the procedure carried out in ascertaining the IC₅₀ concentrations of the thiorhodamines of this invention. (IC₅₀ is the in vitro molar concentration that inhibits 50% of tumor growth. The smaller the concentration, the higher the toxicity.):
(§2) For the IC₅₀ values for the human colon carcinoma and the human lung carcinoma lines, an adhering monolayer culture was used. Two days prior to plating, a number of cells obtained from the American Type Tissue Culture Collection was selected to grow as a stock, the number being that which would ensure the cells had not reached their plateau at the time of the in vitro test. On day 1 of the assay, asynchronous exponentially growing cells from this stock were suspended in a conventional complete medium comprising RPMI 1640 medium supplemented with 5% (v/v) fetal calf serum and 5% (v/v) NU serum obtained from Collaborative Research, and 20mM HEPES buffer, i.e., 4-(2-hydroxyethyl)-1-piperazineethanesulfonic acid. This was plated into a conventional 96-well tissue culture plate using a Cetus/Perkin Elmer automated pipetting device equipped with a dual supply manifold. The cells were then incubated for 48 hours at 37°C in a humidified atmosphere containing 5% CO₂. The cells were then incubated under red light for 3 hours in the presence of varying amounts of the compound of interest at 37°C in a humidified incubator containing 5% CO₂. Compounds were tested over a 6-log range of concentrations. After 3 hours the drug treated cells were then rinsed one time with complete medium as set forth above, and incubated in the complete medium the length of time appropriate to achieve four cell-doubling times (roughly 7 days for these cell lines). The medium was removed and the cells stained for 1-2 hours at 37°C with 0.1% (w/v) neutral red dye obtained from Eastman Kodak Co., dissolved in phosphate buffered saline (PBS) (without calcium or magnesium cations) at a pH of 6.85. The cells were rinsed twice with the same PBS and dried. Excess neutral red dye was eluted from each well with 50% (v/v) ethanol in 1% (v/v) glacial acetic acid. The absorbence of each well was quantitated using a Perkin-Elmer absorbence densitometer set at 540 nm. The % of inhibition of cell growth for a given concentration of compound was calculated using the equation: [formula] where At = absorbence of the cells treated with the candidate drug, Au = absorbence of the control treated with solvent only, and Ab = absorbence of the media and well only (background). […] The plotted data was then fitted to the curve for the function: F(x) = 100 - [100(X/A)^B/(1+(X/A)^B)] where x = the concentration of the test compound, A = the IC₅₀ value (50% inhibition on the plot) and B=the exponent of the fitted function. […]

Test [2] deals with CX-1 Human Colon Carcinoma. The test is described as above. It counts as cell-based. The conditions noted are these: 3 hours drug exposure under red light, then about 7 days growth (four cell-doubling times), neutral red absorbence at 540 nm, read-out: IC₅₀ CX-1 Human Colon Carcinoma.
Description: as §1, §2

Where only a bound is given, the exact number is not on record here.

As to `COC(=O)c1ccccc1-c1c2ccc(N(C)C)cc2[s+]c2cc(N(C)C)ccc12` [Prep. 4, 3,6-bis(dimethylamino)-9-(2-methoxycarbonylphenyl)thioxanthylium chloride], the IC50 in test [1] and in test [2] was 810 nM throughout.
In the case of `COC(=O)c1ccccc1-c1c2ccc(=N)cc-2oc2cc(N)ccc12` [Rhodamine 123], the IC50 in test [1] and in test [2] was > 12500 nM each time.
